The text below walks through data of ChEMBL document CHEMBL1201862, “PubChem BioAssay data set” (2004).

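All cell lines were grown in 96-well plates and treated with compound for 48 hours. Here, GI50 denotes the concentration required for 50% inhibition of growth.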 Activity calls are given as the source filed them. No stated cut-off is given here; in the data, active = GI50 up to about 1.1 µM and inactive = higher.

Assay in all cases: growth of human tumour cells (NCI), 48 h
For assay [1], the system named is BT-549.
For assay [2], the system named is CCRF-CEM.
The subject of assay [3] is COLO 205.
For assay [4], the system named is HCT-15.
In assay [5] the test system is MCF7.
Assay [6] relates to MDA-N.
For assay [7], the system named is NCI-H23.
The test system of assay [8] is NCI-H522.
The test system of assay [9] is OVCAR-4.
Assay [10] deals with OVCAR-5.
Assay [11] relates to PC-3.
The subject of assay [12] is RPMI-8226.
Assay [13] has as its system SK-MEL-2.
Assay [14] concerns SK-MEL-5.
Assay [15] relates to SNB-19.
Assay [16] concerns HL-60.
Assay [17] relates to HT-29.
Assay [18] has as its system MOLT-4.
Assay [19] concerns U-251.
The subject of assay [20] is UACC-62.

Regarding `CC(C)=C[C@H]1CCC2(OCCO2)[C@]1(C)CO`, the GI50 was > 100 µM (inactive) in assay [1]; > 100 µM (inactive) in [2]; > 100 µM (inactive) in assay [3]; over 100 µM in assay [4]; > 100 µM (inactive) in [5]; > 100 µM (inactive) in assay [6]. In addition, the GI50 in assay [7], in assay [8], in assay [9], in assay [10], in assay [11] and in assay [12] was > 100 µM (inactive) throughout. Further, the GI50 in assay [13], in [14] and in assay [15] was > 100 µM (inactive) each time.

`C=C1CCC2CC1C(C(=O)c1c[nH]c3ccccc13)=NC2(C)C` (configuration not stated): the GI50 was > 100 µM (inactive) in assay [1]; > 100 µM (inactive) in assay [2]; > 100 µM (inactive) in [3]; over 100 µM in assay [4]; > 100 µM (inactive) in [16]; > 100 µM (inactive) in [17]. Further, the GI50 in [5], in assay [6], in assay [18], in [7], in assay [8] and in [9] was > 100 µM (inactive) each time. Further, the GI50 is > 100 µM (inactive) in assay [10]; > 100 µM (inactive) in assay [11]; 91 µM (inactive) in assay [12]; > 100 µM (inactive) in assay [14]; > 100 µM (inactive) in assay [15]; > 100 µM (inactive) in assay [19]. Moreover, in assay [20], the GI50 is > 100 µM (inactive).

`Cn1c(=O)oc2nc(-c3ccccc3)cc(C(F)(F)F)c21`: the GI50 in assay [1] was > 100 µM (inactive); in assay [3], > 100 µM (inactive); in assay [4] it was over 100 µM; in assay [17], 33.2 µM (inactive); in assay [5], 37.8 µM (inactive); in assay [6], 3.23 µM (inactive). In addition, the GI50 in [18] is 14.3 µM (inactive); in assay [7] it was > 100 µM (inactive); in assay [8], > 100 µM (inactive); in [9] it was 45.4 µM (inactive); in assay [10], > 100 µM (inactive); in assay [11], > 100 µM (inactive). Further, the GI50 in [12] was 30.5 µM (inactive); in assay [13] it was > 100 µM (inactive); in [14], 50.7 µM (inactive); in [15], > 100 µM (inactive); in assay [19], 95.3 µM (inactive); in assay [20], > 100 µM (inactive).

With `N#CC(C#N)=C1CCCS(=O)(=O)c2ccccc21`, the GI50 in assay [1] was > 100 µM (inactive); in assay [2], > 100 µM (inactive); in [3] it was > 100 µM (inactive); in assay [4] it was over 100 µM; in assay [16], > 100 µM (inactive); in assay [17], > 100 µM (inactive). The GI50 in assay [5], in assay [6], in assay [18], in assay [7], in assay [9] and in assay [10] was > 100 µM (inactive) in each case. Besides, the GI50 in assay [11], in assay [12], in [13], in assay [15], in assay [19] and in [20] was > 100 µM (inactive) throughout.

In the case of `Cc1c(/C=N/NC(=S)N2CCCCC2)c(=O)n(-c2ccccc2)n1C`, the GI50 in [1] was > 100 µM (inactive); in [2] it was 23.2 µM (inactive); in assay [3] it was 29.9 µM (inactive); in assay [4], 23.1 µM; in [16], 14 µM (inactive); in [17], 73.8 µM (inactive). The GI50 in assay [5] was 43.9 µM (inactive); in assay [6] it was > 100 µM (inactive); in [18], 31.3 µM (inactive); in [7], > 100 µM (inactive); in assay [8], 39.1 µM (inactive); in assay [10], > 100 µM (inactive). Further, the GI50 in assay [11] is > 100 µM (inactive); in assay [12], 67.5 µM (inactive); in assay [14] it was 38.5 µM (inactive); in [15], 71.4 µM (inactive); in assay [19], 83.2 µM (inactive); in assay [20] it was > 100 µM (inactive).

For `COc1cc(COC(=O)N(CC(=O)O)c2ccccc2)c([N+](=O)[O-])cc1OC`, the GI50 in assay [1] is > 100 µM (inactive); in assay [2] it was > 100 µM (inactive); in [3], > 100 µM (inactive); in [4], over 100 µM; in assay [16], > 100 µM (inactive); in assay [17] it was > 100 µM (inactive). Further, the GI50 in assay [5], in assay [6], in assay [18], in assay [7], in [10] and in assay [11] was > 100 µM (inactive) each time. The GI50 in assay [12], in assay [14], in [15], in assay [19] and in [20] was > 100 µM (inactive) throughout.

`CC(C(O)c1ccccc1)N(C)/N=N/c1nc2c([nH]1)c(=O)n(C)c(=O)n2C` (configuration not stated): the GI50 in assay [1] is > 100 µM (inactive); in [2], 47.2 µM (inactive); in assay [3] it was 41.4 µM (inactive); in assay [4] it was 90.4 µM; in assay [16], > 100 µM (inactive); in assay [17] it was 39.6 µM (inactive). Also, the GI50 in assay [5] was 26.1 µM (inactive); in [6], 44.8 µM (inactive); in assay [18] it was 38.3 µM (inactive); in assay [7], 60.8 µM (inactive); in assay [9], > 100 µM (inactive); in assay [10] it was > 100 µM (inactive). In addition, the GI50 was 95.3 µM (inactive) in assay [11]; 48.9 µM (inactive) in assay [12]; > 100 µM (inactive) in [13]; 66.8 µM (inactive) in assay [14]; > 100 µM (inactive) in [15]; > 100 µM (inactive) in assay [19]. Moreover, the GI50 in assay [20] is > 100 µM (inactive).

Turning to `CC(=O)OC(C#N)CC(C)(C)/[N+]([O-])=[N+](\[O-])C(C)(C)CC(C#N)OC(C)=O` (configuration not stated), the GI50 in assay [1] was 14.8 µM (inactive); in assay [2] it was 1.73 µM (inactive); in assay [3] it was 15.7 µM (inactive); in [4], 10.6 µM; in assay [17] it was 18.4 µM (inactive); in [5], 8.83 µM (inactive). Further, the GI50 in assay [6] was 14.3 µM (inactive); in assay [18] it was 3.24 µM (inactive); in assay [7] it was 17 µM (inactive); in assay [8], 8.47 µM (inactive); in assay [9], 17.6 µM (inactive); in assay [10], 23 µM (inactive). The GI50 in assay [11] is 15.3 µM (inactive); in [12] it was 15.8 µM (inactive); in assay [13], 24.3 µM (inactive); in assay [14] it was 16.1 µM (inactive); in [15], 23.1 µM (inactive); in [19], 15.8 µM (inactive). Moreover, in assay [20], the GI50 is 16.7 µM (inactive).

Regarding `Cc1cc(N(CCC#N)CCC#N)ccc1C(/N=N\c1ccc([N+](=O)[O-])cc1)=N\NC(=O)c1cc(Cl)ccc1O`, the GI50 was 34.8 µM (inactive) in assay [1]; 25.1 µM (inactive) in [2]; 25 µM (inactive) in assay [3]; 29.6 µM in assay [4]; 29.4 µM (inactive) in [17]; 22.6 µM (inactive) in [5]. Further, the GI50 was 51.3 µM (inactive) in assay [6]; 20.3 µM (inactive) in assay [18]; 15.6 µM (inactive) in assay [7]; 9.35 µM (inactive) in assay [8]; 26.5 µM (inactive) in assay [9]; > 100 µM (inactive) in assay [10]. In addition, the GI50 was 23 µM (inactive) in assay [11]; > 100 µM (inactive) in [12]; 34.4 µM (inactive) in assay [13]; 30.6 µM (inactive) in [14]; 34.7 µM (inactive) in [15]; 46.1 µM (inactive) in assay [19]. The GI50 in assay [20] is 22.9 µM (inactive).

Consider `CCOC(=O)C(NC(=O)C(CCCCNP(=O)(OCC)OCC)NC(=O)C(C)NC(C)=O)C(C)C` (configuration not stated), for which the GI50 in assay [1] is > 100 µM (inactive); in assay [2], > 100 µM (inactive); in assay [3], > 100 µM (inactive); in assay [4], over 100 µM; in assay [16] it was > 100 µM (inactive); in assay [17] it was > 100 µM (inactive). In addition, the GI50 in assay [5], in assay [6], in assay [18], in assay [7], in [9] and in assay [10] was > 100 µM (inactive) each time. Further, the GI50 in assay [11], in assay [12], in [13], in [14], in assay [15] and in assay [19] was > 100 µM (inactive) throughout.

In the case of `NC(Cc1ccc(OCc2ccccc2)cn1)C(=O)OCc1ccccc1` (configuration not stated), the GI50 in assay [1] was > 100 µM (inactive); in assay [2] it was > 100 µM (inactive); in assay [3] it was > 100 µM (inactive); in assay [4] it was over 100 µM; in assay [16] it was > 100 µM (inactive); in assay [17], > 100 µM (inactive). For the same molecule, the GI50 in assay [5], in assay [6], in [7], in [8], in [9] and in [10] was > 100 µM (inactive) each time. For the same molecule, the GI50 in assay [11], in assay [12], in [14], in assay [15] and in [19] was > 100 µM (inactive) throughout.
